In patent publication US20250326771A1, “PIPERAZINE DERIVATIVES USEFUL IN HIV THERAPY” (VIIV HEALTHCARE COMPANY, priority 2022, published 2025):

Legend:
cIAP1-BIR3 = cIAP1-BIR3 (Homo sapiens (Human), UniProt Q13490); assay: BIR binding assay (FRET competition), cIAP1 BIR3; settings: for cIAP1 BIR3 vs BIR2 separation window: fold separation (FS) for cIAP1
How it was run: (§1)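 615/665 nm FRET ratio. Compound, His-domain and 200 nM AF647-SMAC peptide incubated 60 min, then 2 nM Eu-W1024 for 30 min. Domains: cIAP1-BIR3 50 nM; XIAP-BIR3 100 nM; cIAP1-BIR2, cIAP2-BIR2 325 nM each. 15-pt 3-fold series; variable-slope IC50.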

[1] = system: Jurkat HIV-luciferase clones; assay: Jurkat latency reversal assay; format: cell-based; settings: Homo sapiens, 48 h; Jurkat latency reversal assay potency; read-out: Jurkat pEC50 (converted)
How it was run: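 Latency reversal was scored as provirus-driven luciferase luminescence in pooled Jurkat HIV-luc clones after 48 h compound exposure at 37° C. EC50 and maximal activation over vehicle were fitted with a four-parameter logistic model.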

cIAP1-BIR2 = cIAP1-BIR2 (Homo sapiens (Human), UniProt Q13490); assay: BIR binding assay (FRET competition), cIAP1 BIR2
Sequence of cIAP1-BIR2 (Q13490 173-257): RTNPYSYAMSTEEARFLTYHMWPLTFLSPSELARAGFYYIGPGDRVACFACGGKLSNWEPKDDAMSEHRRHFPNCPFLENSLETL
Method: (§2) The BIR domain binding assays are FRET based competition assays that utilize His-tagged versions of each of the BIR2 and BIR3 domains from cIAP1, cIAP2, and XIAP (each domain assayed separately) each at a custom optimal concentration and a probe, 200 nM SMAC/DIABLO peptide […] labelled with AlexaFluor647 (part #crb 1110326h, Discovery Peptides). The assay is conducted in 50 mM HEPES, […], 1 mM CHAPS, 5% Glycerol, 1 mM DTT, in dI water with a final pH of 7.4 and final volume of 20 uL. Final protein domain concentrations are: 50 nM cIAP1-BIR3 (Part #APT-11-370 Reaction Biology), 100 nM XIAP-BIR3 (Part #APT-11-351 Reaction Biology), 200 nM XIAP-BIR2 (Part #APT-11-470 Reaction Biology), 325 nM cIAP2-BIR2 (Part #APT-11-489 Reaction Biology), 50 nM cIAP2-BIR3 (Part #APT-11-372 Reaction Biology), 325 nM cIAP1-BIR2 (Part #APT-11-487 Reaction Biology). Compounds were plated using a HP Tecan D300 printer in a final total volume of 202 nl and DMSO concentration normalized across the 15-point, 3-fold dilution series. Peptide and probe were prepared at 2× relative to the concentrations above in binding buffer, 10 uL added to the prepared compound plates, and incubated for 60 minutes. LANCE Eu-W1024 (part #AD0401 Perkin Elmer #, vendor) was prepared at 2× concentration in binding buffer for final concentration of 2 nM, 10 uL added to each well, and plates incubated for 30 minutes. Plates were read on an ENVISION multifunction plate reader with […] laser excitation to obtain the 615 nm/665 nm emission ratio as indicative of probe:protein proximity. Data was analyzed using GraphPad PRISM and curves fit using log(inhibitor) vs. response—Variable slope (four […] method to obtain IC50 and pIC50 values.

cIAP2-BIR3 = cIAP2-BIR3 (Homo sapiens (Human), UniProt Q13489); assay: BIR binding assay (FRET competition), cIAP2 BIR3; settings: for cIAP2 BIR3 vs BIR2 separation window: fold separation (FS) for cIAP2
Sequence of cIAP2-BIR3 (Q13489 238-349): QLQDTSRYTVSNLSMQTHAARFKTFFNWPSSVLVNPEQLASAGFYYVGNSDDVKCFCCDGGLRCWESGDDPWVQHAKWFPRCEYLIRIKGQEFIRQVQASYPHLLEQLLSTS

cIAP2-BIR2 = cIAP2-BIR2 (Homo sapiens (Human), UniProt Q13489); assay: BIR binding assay (FRET competition), cIAP2 BIR2
Sequence of cIAP2-BIR2 (Q13489 158-242): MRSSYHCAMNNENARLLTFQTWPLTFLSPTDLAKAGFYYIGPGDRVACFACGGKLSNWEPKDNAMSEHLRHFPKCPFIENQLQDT
Method: as §2

XIAP-BIR3 = XIAP-BIR3 (Homo sapiens (Human), UniProt P98170); assay: BIR binding assay (FRET competition), XIAP BIR3
Sequence of XIAP-BIR3 (P98170 241-356): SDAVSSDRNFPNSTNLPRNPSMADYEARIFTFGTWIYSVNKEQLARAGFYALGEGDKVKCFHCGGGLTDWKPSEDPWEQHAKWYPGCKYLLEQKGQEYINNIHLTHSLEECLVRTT
How it was run: as §1

Sequence of cIAP1-BIR3 (Q13490 253-363): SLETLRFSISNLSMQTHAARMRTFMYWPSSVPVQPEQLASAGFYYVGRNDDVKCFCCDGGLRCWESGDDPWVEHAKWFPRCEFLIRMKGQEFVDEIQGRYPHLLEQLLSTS

With `C[C@@H]1CN(CC(=O)N2CC(C)(C)c3[nH]c(=O)c(Cc4ccc(Cl)cc4O)cc32)[C@@H](CN2CCO[C@H](C(=O)NCc3ccc(CNC(=O)[C@@H]4CN(C[C@H]5CN[C@H](C)CN5CC(=O)N5CC(C)(C)c6[nH]c(=O)c(Cc7ccc(Cl)cc7O)cc65)CCO4)cc3)C2)CN1` [Compound 164, (2S,2′S)-N,N′-(1,4-phenylenebis(methylene)) bis(4-(((2R,5R)-1-(2-(6-(4-chloro-2-hydroxybenzyl)-3,3-dimethyl-5-oxo-2,3,4,5-tetrahydro-1H-pyrrolo[3,2-b]pyridin-1-yl)-2-oxoethyl)-5-methylpiperazin-2-yl)methyl)morpholine-2-carboxamide)] the IC50 (cIAP1-BIR3) was 1.38 to 7.94 nM, the “cIAP1 BIR3 vs BIR2 separation window” value (cIAP1-BIR3) was “++ (1,000>FS>100)” and the EC50 [1] was 63.1 to 316 nM. For the same compound, the IC50 (cIAP1-BIR2) was 22.4 to 1000 nM, the IC50 (cIAP2-BIR3) was 1.38 to 7.94 nM and the “cIAP2 BIR3 vs BIR2 separation window” value (cIAP2-BIR3) was “++ (1,000>FS>100)”. The IC50 (cIAP2-BIR2) was 22.4 to 1000 nM and the IC50 (XIAP-BIR3) was 7.94 to 15.8 nM.

For `C[C@@H]1CN(CC(=O)N2CC(C)(C)c3[nH]c(=O)c(Cc4ccc(Cl)cc4Cl)cc32)[C@@H](CN2CCO[C@H](C(=O)NCc3ccc(CNC(=O)[C@@H]4CN(C[C@H]5CN[C@H](C)CN5CC(=O)N5CC(C)(C)c6[nH]c(=O)c(Cc7ccc(Cl)cc7Cl)cc65)CCO4)cc3)C2)CN1` [Compound 165, (2S,2′S)-N,N′-(1,4-phenylenebis(methylene)) bis(4-(((2R,5R)-1-(2-(6-(2,4-dichlorobenzyl)-3,3-dimethyl-5-oxo-2,3,4,5-tetrahydro-1H-pyrrolo[3,2-b]pyridin-1-yl)-2-oxoethyl)-5-methylpiperazin-2-yl)methyl)morpholine-2-carboxamide)], the IC50 (cIAP1-BIR3) was 7.94 to 15.8 nM, the “cIAP1 BIR3 vs BIR2 separation window” value (cIAP1-BIR3) was “+++ (10,000>FS>1,000)” and the EC50 [1] was 12.6 to 63.1 nM. For the same compound, the IC50 (cIAP1-BIR2) was 1000 to 3160 nM, the IC50 (cIAP2-BIR3) was 1.38 to 7.94 nM and the “cIAP2 BIR3 vs BIR2 separation window” value (cIAP2-BIR3) was “+++ (10,000>FS>1,000)”. It also gave an IC50 (cIAP2-BIR2) of 3160 to 10000 nM and an IC50 (XIAP-BIR3) of 31.6 to 501 nM.

In the case of `C[C@@H]1CN(CC(=O)N2CC(C)(C)c3[nH]c(=O)c(Cc4ccc(Cl)cc4C(F)(F)F)cc32)[C@@H](CN2CCO[C@H](C(=O)NCc3ccc(CNC(=O)[C@@H]4CN(C[C@H]5CN[C@H](C)CN5CC(=O)N5CC(C)(C)c6[nH]c(=O)c(Cc7ccc(Cl)cc7C(F)(F)F)cc65)CCO4)cc3)C2)CN1` [Compound 170, (2S,2′S)-N,N′-(1,4-phenylenebis(methylene)) bis(4-(((2R,5R)-1-(2-(6-(4-chloro-2-(trifluoromethyl)benzyl)-3,3-dimethyl-5-oxo-2,3,4,5-tetrahydro-1H-pyrrolo[3,2-b]pyridin-1-yl)-2-oxoethyl)-5-methylpiperazin-2-yl)methyl)morpholine-2-carboxamide)], the IC50 (cIAP1-BIR3) is reported as 1.38 to 7.94 nM, the “cIAP1 BIR3 vs BIR2 separation window” value (cIAP1-BIR3) is reported as “+++ (10,000>FS>1,000)” and the EC50 [1] is reported as 12.6 to 63.1 nM. For the same compound, the IC50 (cIAP1-BIR2) was 3160 to 10000 nM, the IC50 (cIAP2-BIR3) was 1.38 to 7.94 nM and the “cIAP2 BIR3 vs BIR2 separation window” value (cIAP2-BIR3) was “+++ (10,000>FS>1,000)”. The IC50 (cIAP2-BIR2) was 1000 to 3160 nM and the IC50 (XIAP-BIR3) was 15.8 to 31.6 nM.

`C[C@@H]1CN(CC(=O)N2CC(C)(C)c3[nH]c(=O)c(Cc4ccc(Cl)cc4C#N)cc32)[C@@H](CN2CCO[C@H](C(=O)NCc3ccc(CNC(=O)[C@@H]4CN(C[C@H]5CN[C@H](C)CN5CC(=O)N5CC(C)(C)c6[nH]c(=O)c(Cc7ccc(Cl)cc7C#N)cc65)CCO4)cc3)C2)CN1` [Compound 171, (2S,2′S)-N,N′-(1,4-phenylenebis(methylene)) bis(4-(((2R,5R)-1-(2-(6-(4-chloro-2-cyanobenzyl)-3,3-dimethyl-5-oxo-2,3,4,5-tetrahydro-1H-pyrrolo[3,2-b]pyridin-1-yl)-2-oxoethyl)-5-methylpiperazin-2-yl)methyl)morpholine-2-carboxamide)] was tested, and the IC50 (cIAP1-BIR3) was 1.38 to 7.94 nM, the “cIAP1 BIR3 vs BIR2 separation window” value (cIAP1-BIR3) was “++ (1,000>FS>100)” and the EC50 [1] was 12.6 to 63.1 nM. For the same compound, the IC50 (cIAP1-BIR2) was 22.4 to 1000 nM, the IC50 (cIAP2-BIR3) was 1.38 to 7.94 nM and the “cIAP2 BIR3 vs BIR2 separation window” value (cIAP2-BIR3) was “++ (1,000>FS>100)”. It also gave an IC50 (cIAP2-BIR2) of 22.4 to 1000 nM and an IC50 (XIAP-BIR3) of 31.6 to 501 nM.
